Results from patent EP0389975A1, “Intranasal administration of physostigmine and arecoline” (priority 1989, dated 1990).
Where two headings read alike, the source gives them in different places.

Key:
[1] = Pharmacokinetics of physostigmine in rats after intravenous and intranasal administration
Description: Male Lewis rats, each weighing approximately 300 grams were anesthesized with pentobarbital (50 mg/kg i.p.). The jugular vein was cannulated and attached to a syringe through a three way stopcock for blood collections. For nasal administration of physostigmine and arecoline, an incision was made in the neck of the animals and the trachea was cannulated with a polyethylene (PE) tube. A closed tube was inserted through the esophagus to the posterior part of the nasal cavity. The nasopalatine passage was closed with an adhesive agent to prevent drainage of the drug from the nasal cavity to the mouth. An aqueous solution of physostigmine hemi-sulfate (obtained from Sigma Chemical, St. Louis, Mo.) dose equivalent to 200 µg/kg of physostigmine base in a volume of 150 µl/kg was administered to the nasal cavity by means of a Hamilton syringe with PE tubing attached to the end. For arecoline hydrobromide (obtained from Sigma Chemical, St. Louis, MO.), an aqueous solution with a dose of 2 mg/kg was administered in a volume of 150 µl/kg. Blood samples (1 ml) were withdrawn through the jugular cannula and replaced with equal volume of fresh blood after each sampling as a function of time. For intravenous administration of physostigmine the same dose as nasal (200 µg/kg) in a volume of 1 ml/kg was injected through the femoral vein. For intramuscular arecoline hydrobromide, the dose was 1 mg/kg in a volume of 1 ml/kg injected into the biceps femoris. The blood samples were collected into heparinized test tubes. In the case of physostigmine the tubes also contained 50 µl of a 100 µg/ml neostigmine bromide (as a stabilizer for physostigmine). Plasma was separated immediately and stored frozen.
The analytical method for physostigmine in plasma was a modification of that described in Brodie, et al., J. Chromatogr. 415, 423-431 (1987). Plasma samples (0.5 ml) were pipetted into extraction tubes, and 0.2 ml of an aqueous solution of 3,3-bis(4- pyridylmethyl)-1-phenyl indolin-2-one as an internal standard (1.5 µg/ml), 2 ml of ethylacetate and 0.2 ml of a 3.5% sodium carbonate solution were added. The tubes were shaken mechanically for 0.5 minute and centrifuged for 5 minutes. The organic layer was then transferred to 12 X 75 mm tubes, evaporated to dryness under a steam of nitrogen, and the residue was reconstituted in 0.2 ml acetonitrile. After mechanical shaking (2 minutes), aliquots (125 µl) were analyzed by High Performance Liquid Chromatography (HPLC) using a dual detection system, where detection of physostigmine was by a fluorimetric detector and detection of the internal standard was by an ultraviolet (u.v.) detector.
Separation was achieved on a 25 cm x 4.6 mm reverse phase (Zorbax® C₈, Du Pont) column attached to a guard column with C₈ packing at ambient temperature The mobile phase contained 0.2 M ammonium acetate-acetonitrile (2:3), adjusted to pH 8.2-8.3 with triethylamine and was delivered at a flow rate of 1.5 ml/min. Detection of physostigmine was by fluorimetric detector (Spectroflow 980 Programmable Fluorescence Detector, Kratos) operated at excitation and emission wavelengths of 254 and 320 nm, respectively. Detection of the internal standard was by u.v. detector (Lambda-Max Model 481 LC Spectrophotometer, Waters instrument) set at 254 nm. […] The other components of the HPLC system were a Waters 590 Programmable HPLC pump, an autosampler (Waters WISP 710B) and a recording integrator (Hewlett-Packard Model 3393A).

[2] = system: patients having Alzheimer presenile dementia; details: cited from earlier work
[3] = Pharmacokinetics of arecoline in rats after intranasal and intramuscular administration; type: in vivo, Male Lewis rats; details: for Tmax / half-life / AUC / Cmax: male, Lewis, rat, plasma; for AUC / Cmax: n=3 rats
Description: (§1) The blood samples were collected into heparinized test tubes. […] Plasma was separated immediately and stored frozen.
The analytical method of arecoline in plasma was performed by gas-chromatography-mass spectrometry (GC-MS) after solvent extraction using a method similar to that described in Beil, et al., Drug Develop Res, 9, 203-212 (1986). Nicotine was used as an internal standard. In this method, 50µl of nicotine solution in chloroform (1.5 µg/ml and 50 µl of 10% triethylamine in chloroform were added to 0.5 ml cold plasma in a 5 ml test tube with a screw cap. The tubes were vortexed for 1 minute and centrifuged for 10-15 minutes. The organic layer was then removed, placed in a micro vial and sealed with perfluoroethylene tape such as Teflon®, until analysis.
GC-MS analysis was performed using an HP-1 column, (crosslinked methyl silicon, 12 m x […] x 0.33 µm film thickness). Two µl aliquots were injected onto the column in a splitless mode. Helium was used as a carrier gas. Detection was accomplished using a gas chromatograph electron impact mass selective detector set at m/z=155 and 162. The limit of arecoline detection was 15 ng/ml.

[4] = In situ-in vivo nasal study: dosing in one nostril and washing out from the other; design: species or system rats; details: after 15 minutes of dosing in one nostril
rats = experiment: Survival of rats after arecoline administration by different routes; type: in vivo
Description: as §1
Plasma arecoline concentrations were determined after nasal and i.m. administration of the compound. After intranasal administration, arecoline was absorbed very rapidly (tmax= 3 +/- 1.6 min), faster than after i.m. administration (tmax=13.3 +/- 6.2 min). […] It is not known why absorption after i.m. was slower. […] Bolus i.v. studies were also performed, but the rats died. […]

normal human subjects = details: cited from earlier work
[5] = cited from earlier work
[6] = male, Lewis, rat, plasma, inhaled or intranasal, 200 ug/kg
[7] = im, 1 mg/kg, after i.m. administration
[8] = im, Intramuscular, 1 mg/kg Arecoline HBr
[9] = inhaled or intranasal, 2 mg/kg, after intranasal administration
[10] = inhaled or intranasal, Intranasal, 2 mg/kg Arecoline HBr

Compound: CNC(=O)Oc1ccc2c(c1)[C@]1(C)CCN(C)[C@@H]1N2C [physostigmine]
- Tmax ([1]; Nasal, 200 µg/kg, n = 7 rats (Table 1)): 6.5 ± 1.7 min
- AUC [1, 6]: 38.9 ng·h/mL
- Cmax [1, 6]: 86 ± 5 ng/mL
- Tmax [1, 6]: 6.5 min
- half-life [1, 6]: 36 ± 16 min
- AUC ([1]; male, Lewis, rat, plasma, iv, 200 ug/kg): 40.2 ng·h/mL
- bioavailability ([1]; male, Lewis, rat, plasma, iv, 200 µg/kg): 97%
- picture recognition tests ([2]; 0.25 mg and 0.75 mg doses): trend toward improvement
- picture recognition tests ([2]; intravenous administration of 0.375 mg): improvement

Compound: COC(=O)C1=CCCN(C)C1 [arecoline]
- Tmax ([3]; im, 1 mg/kg, Intramuscular, 1 mg/kg Arecoline HBr, n=3 rats (Table 2)): 5.43 min
- Tmax [3, 7]: 13.3 min
- half-life [3, 7]: 5.4 ± 1.1 min
- AUC [3, 8]: 77.7 ng·h/mL
- Cmax [3, 8]: 249 ± 22 ng/mL
- Tmax ([3]; inhaled or intranasal, 2 mg/kg, Intranasal, 2 mg/kg Arecoline HBr, n=3 rats (Table 2)): 3 min
- Tmax [3, 9]: 3 min
- half-life [3, 9]: 2 ± 0.6 min
- AUC [3, 10]: 141 ng·h/mL
- Cmax [3, 10]: 1750 ± 523 ng/mL
- Bioavilability ([3]; ratio of AUC (nasal/intramuscular) X 100): 85%
- residual arecoline in the nose [4]: no residual arecoline
- death of rats (rats; bolus i.v.): the rats died
- death of rats (rats; i.m. administration): None of the rats died
- death of rats (rats; intranasal administration): None of the rats died
- picture recognition tests ([2]; 2 mg doses): trend toward improvement
- picture recognition tests ([2]; intravenous administration of 4 mg): improvement
- serial learning (normal human subjects): significantly enhanced
- bioavailability upon oral administration [5]: not bioavailable
